In publication PMC9891357 (Molecular Cancer Therapeutics, 2022) one finds IC50 data, which are given here for one compound.

The target in assay [1] is USP12 (Homo sapiens, UniProt O75317). Description: Ubiquigent DUBprofiler biochemical panel, […] inhibition at […].
Assay [2] concerns the target USP46 (Homo sapiens, UniProt P62068). Described as above.

Chain of USP12 (O75317 whole entry): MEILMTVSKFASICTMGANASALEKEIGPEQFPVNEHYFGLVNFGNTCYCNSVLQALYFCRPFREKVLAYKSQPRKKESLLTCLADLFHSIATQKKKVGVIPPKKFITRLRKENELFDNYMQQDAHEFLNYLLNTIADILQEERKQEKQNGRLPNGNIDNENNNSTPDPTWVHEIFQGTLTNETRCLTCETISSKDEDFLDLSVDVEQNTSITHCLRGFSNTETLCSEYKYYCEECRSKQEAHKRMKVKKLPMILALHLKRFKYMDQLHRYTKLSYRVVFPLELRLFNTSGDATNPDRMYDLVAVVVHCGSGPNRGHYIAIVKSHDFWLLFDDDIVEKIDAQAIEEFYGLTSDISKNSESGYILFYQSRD
Chain of USP12 (Q8TAF3 whole entry partner): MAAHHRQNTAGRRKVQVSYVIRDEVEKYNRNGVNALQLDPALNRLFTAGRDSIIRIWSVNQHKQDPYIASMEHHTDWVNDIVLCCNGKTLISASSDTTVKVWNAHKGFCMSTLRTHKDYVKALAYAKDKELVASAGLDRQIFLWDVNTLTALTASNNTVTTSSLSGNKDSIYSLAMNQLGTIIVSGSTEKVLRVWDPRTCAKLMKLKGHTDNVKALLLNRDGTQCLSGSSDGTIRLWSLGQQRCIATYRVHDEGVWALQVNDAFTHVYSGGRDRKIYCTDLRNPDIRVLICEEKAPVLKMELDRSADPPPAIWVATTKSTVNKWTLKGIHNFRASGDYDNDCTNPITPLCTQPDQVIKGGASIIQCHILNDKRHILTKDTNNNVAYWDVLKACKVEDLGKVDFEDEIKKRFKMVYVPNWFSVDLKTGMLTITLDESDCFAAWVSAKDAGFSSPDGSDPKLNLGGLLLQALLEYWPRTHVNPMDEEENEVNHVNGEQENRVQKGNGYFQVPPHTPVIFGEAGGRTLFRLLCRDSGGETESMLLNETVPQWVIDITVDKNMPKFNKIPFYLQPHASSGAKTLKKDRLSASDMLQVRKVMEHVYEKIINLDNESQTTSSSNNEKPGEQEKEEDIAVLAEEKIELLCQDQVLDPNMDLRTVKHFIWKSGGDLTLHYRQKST
Chain of USP46 (P62068 whole entry): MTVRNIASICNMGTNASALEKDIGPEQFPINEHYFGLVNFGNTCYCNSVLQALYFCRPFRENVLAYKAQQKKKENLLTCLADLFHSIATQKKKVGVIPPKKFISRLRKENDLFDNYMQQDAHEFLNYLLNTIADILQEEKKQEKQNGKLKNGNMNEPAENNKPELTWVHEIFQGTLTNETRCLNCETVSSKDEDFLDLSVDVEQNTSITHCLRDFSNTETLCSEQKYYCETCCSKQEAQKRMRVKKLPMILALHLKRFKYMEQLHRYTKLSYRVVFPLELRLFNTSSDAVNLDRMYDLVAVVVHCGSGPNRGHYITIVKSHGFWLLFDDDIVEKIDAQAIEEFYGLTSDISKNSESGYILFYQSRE
Chain of USP46 (Q8TAF3 whole entry partner): as the sequence (Q8TAF3 whole entry partner) above

Consider `CC(C)c1ccccc1-c1ncc2[nH]c(=O)n(Cc3ccc(-c4nc(C(F)(F)F)cn4C)cc3)c2n1` [I-138, 2-(2-isopropylphenyl)-9-(4-(1-methyl-4-(trifluoromethyl)-1H-imidazol-2-yl)benzyl)-7,9-dihydro-8H-purin-8-one], for which the IC50 in assay [1] and in assay [2] was ~ 10 μmol/L in each case.
